According to US20030004154A1, “New crystal forms of oxcarbazepine and processes for their preparation” (priority 2001, published 2003):
Where two headings read alike, the source gives them in different places. Values belong to the compound of their own block, whether it stands above or below them.

Key:
[1] = tested on: voltage sensitive sodium channels; details: in vitro studies; cited from earlier work
[2] = cited from earlier work
[3] = Solid form after slurry in protic solvent, analyzed by PXRD; format: physicochemical
Experimental: One skilled in the art may appreciate that other protic solvents may be used and the optimal conditions may be determined through routine experimentation. The characterization of crystalline phases were performed using Phillips PW 1710 Diffractometer. Thermograviometric analysis (TGA) was produced using Mettler TG50 equipped with Mettler TC11 TA processor. Differential Scanning calorimetry (DSC) was performed using Mettler DSC 30 apparatus. FTIR spectra were recorded using Nicolet Avatar 360 spectrometer. Oxcarbazepine Form B was suspended in ethanol for 24 hours. The product was analyzed by PXRD and determined to be Form A. Oxcarbazepine Form C was suspended in ethanol for 24 hours. The product was analyzed by PXRD and determined to be Form A. Oxcarbazepine Form D was suspended in water for 24 hours. The product is analyzed by PXRD and is determined to be Form A.

[4] = Solid form after heating, analyzed by PXRD; format: physicochemical
Experimental: The present invention also provides for processes that convert one form of oxcarbazepine into another form of oxcarbazepine. Form A may be obtained by heating oxcarbazepine solvate Form E at elevated temperatures between 40° C. and 80° C., preferably 60° C., for a period of 2 hours to 10 hours, preferably 4 hours. One skilled in the art may appreciate that Form E may transform to Form A under different conditions, and that the optimal conditions may be discovered with routine experimentation. The present invention also provides a process for transforming Form B to Form A. At about ambient temperature, Form B transforms to Form C. One skilled in the art would appreciate that such a transition may also occur at temperatures above and below ambient temperature, and that by routine experimentation the boundary of the temperature range may be determined. At higher temperatures, between 60° C. and 120° C., preferably 60° C., a transformation from form B to form A occurs after a few hours, as determined by the temperature. The temperature at which Form B transforms to Form A rather than Form C may be determined by routine experimentation. One skilled in the art may appreciate that the rate and extent of the transformation varies with the conditions and the amount of time under which the transformation occurs. […] FTIR spectra were recorded using Nicolet Avatar 360 spectrometer. […]

[5] = Solid form after storage at ambient temperature, analyzed by PXRD; format: physicochemical; details: stored at ambient temperature (about 20 to 30° C.; gradual, may occur over several months)
Experimental: The present invention also provides a process for transforming Form B to Form C. […] The transformation is gradual and prolonged, and may occur over several months. One skilled in the art may appreciate that the optimal conditions and time for transformation may be discovered through routine experimentation. The characterization of crystalline phases were performed using Phillips PW 1710 Diffractometer. Thermograviometric analysis (TGA) was produced using Mettler TG50 equipped with Mettler TC11 TA processor. Differential Scanning calorimetry (DSC) was performed using Mettler DSC 30 apparatus. FTIR spectra were recorded using Nicolet Avatar 360 spectrometer. Oxcarbazepine Form B was stored at an ambient temperature. The resulting material was analyzed by PXRD and found to be Form C.

SMILES: NC(=O)N1c2ccccc2CC(O)c2ccccc21 (centres unmarked) [10-hydroxy metabolite of oxcarbazepine]
effect on voltage sensitive sodium channels [1]: blocks voltage sensitive sodium channels

SMILES: NC(=O)N1c2ccccc2CC(=O)c2ccccc21 [Oxcarbazepine Form A, 10-oxo-10,11-dihydro-5H-dibenz[b, f]azepine-5-carboxamide]
solubility ([2]; solvents ethanol, ether and water): practically insoluble
solubility ([2]; solvents such as chloroform, dichloromethane, acetone and methanol): slightly soluble

crystal form found by PXRD after suspension in solvent (solid-state stability) ([3]; suspended in ethanol for 24 hours): Form A
crystal form found by PXRD after heating (solid-state stability) ([4]; heated to about 60° C., maintained for five hours): Form A
crystal form found by PXRD after storage (solid-state stability) [5]: Form C
SMILES: NC(=O)N1c2ccccc2CC(=O)c2ccccc21 [Oxcarbazepine Form B, 10-oxo-10,11-dihydro-5H-dibenz[b, f]azepine-5-carboxamide]

crystal form found by PXRD after suspension in solvent (solid-state stability) ([3]; suspended in water for 24 hours): Form A
SMILES: NC(=O)N1c2ccccc2CC(=O)c2ccccc21 [Oxcarbazepine Form D, 10-oxo-10,11-dihydro-5H-dibenz[b, f]azepine-5-carboxamide]

crystal form found by PXRD after heating (solid-state stability) ([4]; heated to 60° C., maintained for 4 hours): Form A
SMILES: NC(=O)N1c2ccccc2CC(=O)c2ccccc21 [Oxcarbazepine solvate Form E, 10-oxo-10,11-dihydro-5H-dibenz[b, f]azepine-5-carboxamide]
